Results: publication PMC9999251, “Pyrazole-based lamellarin O analogues: synthesis, biological evaluation and structure–activity relationships” (RSC Advances, 2023)

How the values were obtained:
HCT116 cells [1] = assay: Cell viability (MTT assay), HCT116; format: cell-based; conditions: Homo sapiens, HCT-116, 96 h treatment, read-out: GI50 ± SD HCT116
Method: (§1) SW480 (human colon adenocarcinoma, adherent, epithelial, ATCC number: CCL-228), HT29 (human colon adenocarcinoma, adherent, epithelial, ATCC number: HTB-38), and HCT116 (human colon adenocarcinoma, adherent, epithelial-like, ATCC number: CCL-247) cells were maintained in RPMI-1640 medium (Sigma-Aldrich). Medium was supplemented with heat-inactivated FBS (Biowest), penicillin–streptomycin (Sigma; with 10 000 units penicillin and 10 mg streptomycin per mL in 0.9% NaCl) and L-glutamine (Sigma; 200 mM solution). Cell cultures were cultivated at 37 °C, maintaining a humidified atmosphere consisting of 5% CO2. Gibco™ trypsin–EDTA (0.05%) was used for cell passage.
(§2) To evaluate cell viability, SW480, HT29, and HCT116 cells were harvested from culture flasks by trypsinization and seeded into 96-well plates in 4000 cells per well, 3000 cells per well and 4000 cells per well densities, respectively. After 24 h preincubation period, cells were treated in triplicates with nine different doses of each compound (6a–o and 7a–c) for 96 h. After treatment compound solutions were replaced with MTT solution (MTT reagent in PBS, […]) diluted in a 6 : 1 ratio in non-supplemented RPMI-1640 medium and were additionally incubated for 2 h. After incubation, the medium was removed, and formazan product was dissolved in DMSO. Optical densities were measured at 550 nm with TECAN Infinite® M200 PRO microplate reader using a reference wavelength of 690 nm to correct unspecific absorption. The quantity of viable cells was normalized to untreated controls. The GI50 values were calculated from dose–response curves.

HT29 cells [2] = assay: Cell viability (MTT assay), HT29; format: cell-based; conditions: Homo sapiens, HT-29, 96 h treatment, read-out: GI50 ± SD HT29
Method: as §1, §2

SW480 cells [3] = assay: Cell viability (MTT assay), SW480; format: cell-based; conditions: Homo sapiens, SW480, 96 h, 96 h treatment, read-out: GI50 ± SD SW480
Method: as §1, §2

[4] = Determination of HPLC–log P; format: physicochemical; conditions: reversed-phase HPLC on apHera C18 column; methanol / 0.01 M phosphate buffer pH 7.4; mean ± SD
Method: HPLC–log P values were determined using Shimadzu HPLC system equipped with apHera C18 column (10 × 6 mm, 5 μm, Supelco, Bellefonte, PA, USA). Each sample was dissolved in the internal standard mixture, consisting of triphenylene (99.9%, Carl Roth) and toluene (≥98%, Sigma-Aldrich). Analysis was performed at 1.5 mL min^−1 flow rate in the linear gradient where mobile phase consisted of methanol and 0.01 M phosphate buffer (pH 7.4). The HPLC–log P values were calculated from the measured retention times using previously published equation.[57]

human serum albumin = target: T1, human serum albumin (Homo sapiens, UniProt P02768); assay: Plasma protein binding (PPB), HPLC on albumin-bound stationary phase; format: in vitro ADME; conditions: pH 7.4, binding to human serum albumin, HPLC method
T1 construct: purchased Chiral Technologies, DAICEL Group, Europe SAS, France CHIRALPAK®HAS (50 × 3 mm, 5 μm)
T1 sequence (P02768 25-609): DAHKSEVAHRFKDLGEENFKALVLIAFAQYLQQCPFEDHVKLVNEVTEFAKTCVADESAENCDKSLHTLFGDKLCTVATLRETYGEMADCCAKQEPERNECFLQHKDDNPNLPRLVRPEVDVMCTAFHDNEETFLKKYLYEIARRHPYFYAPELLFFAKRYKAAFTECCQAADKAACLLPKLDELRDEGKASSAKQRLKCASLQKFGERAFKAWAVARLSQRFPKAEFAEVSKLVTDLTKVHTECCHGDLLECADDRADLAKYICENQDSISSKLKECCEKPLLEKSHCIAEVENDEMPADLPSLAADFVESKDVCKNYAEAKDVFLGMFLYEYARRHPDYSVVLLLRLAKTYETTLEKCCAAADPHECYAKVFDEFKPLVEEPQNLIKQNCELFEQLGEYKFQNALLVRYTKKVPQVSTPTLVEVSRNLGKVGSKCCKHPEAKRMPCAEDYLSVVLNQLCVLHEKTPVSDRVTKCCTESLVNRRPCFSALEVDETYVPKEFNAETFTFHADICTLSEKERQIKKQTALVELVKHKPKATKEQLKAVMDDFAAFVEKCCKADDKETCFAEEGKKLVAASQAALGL
Method: Retention times of the analytes were measured with Shimadzu HPLC system on the CHIRALPAK®HAS stationary phase (50 × 3 mm, 5 μm, Chiral Technologies, DAICEL Group, Europe SAS, France). The mobile phase A consisted of 50 mM aqueous ammonium acetate buffer (pH 7.4) and phase B of 2-propanol according to Valko et al.[65] Analysis was performed at prolonged 1 mL min^−1 flow rate in the linear gradient. Retention capacity factors (k′) were calculated by using DMSO or a substance with 0% HAS binding for systems' dead time (Rt0). The system was calibrated by injecting the reference compounds: acetylsalicylic acid (CAS 69-72-7), betamethasone (CAS 378-44-9), budesonide (CAS 5133-22-3), carbamazepine (CAS 298-46-4), cimetidine (CAS 51481-61-9), ciprofloxacin (CAS 85721-33-1), indomethacin (CAS 53-86-1), isoniazid (CAS 54-85-3), metronidazole (CAS 443-48-1), nicardipine (CAS 55985-32-5), nizatidine (CAS 76963-41-2) and warfarin (CAS 81-81-2) obtained from Sigma-Aldrich, diclofenac (CAS 15307-86-5) from EMD Chemicals Inc., flumazenil (CAS 78755-81-4) from ABX and ketoprofen (CAS 22071-15-4) from LKT Labs. The logarithmic capacity factors of the references' Rt (log(k′)) on the HSA column were plotted against the %PPB values from literature. The slope and the intercept were used to convert the log(k′) of the compounds (6a, c, f, h, m–o) to %PPB using the regression equation.[66]

HCT116 cells [5] = assay: Cell cycle distribution by flow cytometry (FACS); format: cell-based, human; conditions: HCT116, 72 h, lowest concentration of 5 μM; for G2/M phase: negative control 14.2 ± 1.1%; for G1 phase: negative control 49.5 ± 1.8%
Method: HCT116 cells (40 000 cells per well) were treated with the test compounds (6c, 6m) for 72 h in the concentration range of 5, 10 and 20 μM. After treatment cells were washed with DPBS (Sigma; modified, without calcium chloride and magnesium chloride) and trypsinized using a trypsin–EDTA solution (Gibco™, 0.05%). After additional washing with DPBS, cells were stained at +4 °C overnight using PI/HFS solution (50 μg mL^−1).[67] Samples were then analysed using Guava® easyCyte™ 8HT (Merck Millipore) flow cytometer with Guava Clean 3.1 software. The amount of debris was in the range of 9.2 ± 2.0%.

HCT116 cells [6] = assay: Viability staining via Calcein AM/Hoechst/PI, HCT116; format: cell-based, human; conditions: 20 µM, 24 h (Fig. S134 legend), method block: 4 μM, 96 h
Method: (§3) SW480, HT29 and HCT116 cells were seeded in 24-well plates in a cell density of 6000 cells per well and settled for 24 h. […] Cells were stained with propidium iodide (Sigma Aldrich, final concentration 2 μg mL^−1) and Hoechst 33342 (ThermoFisher Scientific, final concentration 0.5 μM) for 60 min and with Calcein AM (Merck, BioReagent, final concentration 50 μM) for 15 min, washed two times with PBS and finally covered with PBS for further analysis. Fluorescence microscopic evaluation was performed on a Evos FL Cell Imaging System (ThermoFisher Scientific).

SW480 cells [7] = assay: Viability staining via Calcein AM/Hoechst/PI, SW480; format: cell-based, human; conditions: 20 µM, 24 h (Fig. S135 legend), method block: 4 μM, 96 h
Method: as §3

HT29 cells [8] = assay: Viability staining via Calcein AM/Hoechst/PI, HT29; format: cell-based, human; conditions: 20 µM, 24 h (Fig. S136 legend), method block: 4 μM, 96 h
Method: SW480, HT29 and HCT116 cells were seeded in 24-well plates in a cell density of 6000 cells per well and settled for 24 h. Afterwards cells were treated with 4 μM of test compounds 6a, c, f, h, m–o for 96 h. Cells were stained with propidium iodide (Sigma Aldrich, final concentration 2 μg mL^−1) and Hoechst 33342 (ThermoFisher Scientific, final concentration 0.5 μM) for 60 min and with Calcein AM (Merck, BioReagent, final concentration 50 μM) for 15 min, washed two times with PBS and finally covered with PBS for further analysis. Fluorescence microscopic evaluation was performed on a Evos FL Cell Imaging System (ThermoFisher Scientific).

SW620 = system: SW620; design: method as in PMID 24979269; conditions: SW620 colorectal cancer cells; read-out: IC50 cytotoxicity; cited from earlier work
SW620/Ad300 = system: SW620/Ad300; design: method as in PMID 24979269; conditions: SW620/Ad300 multi-drug resistant daughter cell line; read-out: IC50 cytotoxicity; cited from earlier work

| GI50 (HCT116 cells [1]) [µM] | GI50 (HT29 cells [2]) [µM] | GI50 (SW480 cells [3]) [µM] | chromatographic logP [4] | fraction unbound (human serum albumin) | melting point [°C] | SMILES | G2/M phase (HCT116 cells [5]) [%] | G1 phase (HCT116 cells [5]) [%] | PI staining (necrosis) (HCT116 cells [6]) | PI staining (necrosis) (SW480 cells [7]) | PI staining (necrosis) (HT29 cells [8]) | IC50 (SW620) [µM] | IC50 (SW620/Ad300) [µM] |
| --- | --- | --- | --- | --- | --- | --- | --- | --- | --- | --- | --- | --- | --- |
| 1.96 ± 0.266 | 4.98 ± 2.62 | 5.52 ± 3.72 | 4.453 ± 0.005 | 0.04 | 114 to 115 | CCOC(=O)c1c(-c2ccccc2)c(-c2ccccc2)nn1CC(=O)c1ccc(F)cc1 [Compound 6c, Ethyl 1-[2-(4-fluorophenyl)-2-oxoethyl]-3,4-diphenyl-1H-pyrazole-5-carboxylate] | 25.0 ± 0.5 | 63.2 ± 1.4 | no involvement of necrosis | no involvement of necrosis | no involvement of necrosis | – | – |
| 1.46 ± 0.247 | 2.69 ± 0.11 | 1.44 ± 0.173 | 4.545 ± 0.006 | 0.034 | 104 to 105 | CCOC(=O)c1c(-c2ccccc2)c(-c2ccc(F)cc2)nn1CC(=O)c1ccc(F)cc1 [Compound 6m, Ethyl 3-(4-fluorophenyl)-1-[2-(4-fluorophenyl)-2-oxoethyl]-4-phenyl-1H-pyrazole-5-carboxylate] | 26.9 ± 0.8 | 61.0 ± 1.8 | no involvement of necrosis | no involvement of necrosis | no involvement of necrosis | – | – |
| – | – | – | – | – | – | COC(=O)c1c(-c2ccc(O)cc2)c(-c2ccc(O)cc2)cn1CC(=O)c1ccc(OC)cc1 [Lamellarin O] | – | – | – | – | – | 20 | 22.3 |
